The results in this text go back to PubChem BioAssay AID330 (DTP/NCI, 2004).

This experiment has as its system P388 leukemia ip, CD2F1 mice, survival T/C. The experiment is described as follows: NCI In Vivo Anticancer Drug Screen. Data for tumor model P388 Leukemia (intraperitoneal) in CD2F1 (CDF1) mice. Particulars: endpoint: median survival time, higher = longer survival. An outline of the steps:
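Mice carrying the transplanted tumor received test compound or vehicle. Survival was recorded in each group, and the value is the treated-group measurement divided by that of the vehicle-treated control group.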

Where [1] appears, read: dose: 50.0 mg/kg/injection, schedule: Q01DX005 (ip), vehicle: Klucel (hydroxypropylcellulose) (HPC).
Setting [2] is: dose: 100.0 mg/kg/injection, schedule: Q01DX005 (ip), vehicle: Klucel (hydroxypropylcellulose) (HPC).
[3] abbreviates: dose: 200.0 mg/kg/injection, schedule: Q01DX005 (ip), vehicle: Klucel (hydroxypropylcellulose) (HPC).
Where [4] appears, read: dose: 12.5 mg/kg/injection, schedule: Q01DX005 (ip), vehicle: Klucel (hydroxypropylcellulose) (HPC).
Setting [5] is: dose: 25.0 mg/kg/injection, schedule: Q01DX005 (ip), vehicle: Klucel (hydroxypropylcellulose) (HPC).
The mark [6] stands for this setting: dose: 25.0 mg/kg/injection, schedule: Q01DX009 (ip), vehicle: saline with Tween-80.
[7] abbreviates: dose: 50.0 mg/kg/injection, schedule: Q01DX005 (ip), vehicle: saline with Tween-80.
The mark [8] stands for this setting: dose: 50.0 mg/kg/injection, schedule: Q01DX009 (ip), vehicle: saline with Tween-80.
Setting [9] is: dose: 100.0 mg/kg/injection, schedule: Q01DX005 (ip), vehicle: saline with Tween-80.
Where [10] appears, read: dose: 12.5 mg/kg/injection, schedule: Q01DX005 (ip), vehicle: saline with Tween-80.
The mark [11] stands for this setting: dose: 25.0 mg/kg/injection, schedule: Q01DX005 (ip), vehicle: saline with Tween-80.
The mark [12] stands for this setting: dose: 200.0 mg/kg/injection, schedule: Q01DX005 (ip), vehicle: saline with Tween-80.

Where “and” joins values, the source holds several entries; their conditions need not be identical. Equal entries are not always repeated. Inconclusive results and toxic doses are left out.

Consider `NC1=NCN(C2OC(CO)C(O)C2O)C(=O)N1` (centres undefined), for which the T/C is, setting by setting: (dose: 3.12 mg/kg/injection, schedule: Q01DX009 (ip), vehicle: saline) 110 % of control; (dose: 3.13 mg/kg/injection, schedule: Q01DX009 (ip), vehicle: saline) 120 % of control; (dose: 25.0 mg/kg/injection, schedule: Q01DX005 (iv), vehicle: saline) 118 % of control; (dose: 25.0 mg/kg/injection, schedule: Q01DX009 (ip), vehicle: saline) 150 % of control and 159 % of control; (dose: 50.0 mg/kg/injection, schedule: Q01DX005 (ip), vehicle: saline) 150 % of control; (dose: 120.0 mg/kg/injection, schedule: Q01DX009 (ip), vehicle: saline) 190 % of control. Further, the T/C was 199 % of control and 203 % of control (dose: 140.0 mg/kg/injection, schedule: Q01DX009 (ip), vehicle: saline); 200 % of control (dose: 160.0 mg/kg/injection, schedule: Q01DX009 (ip), vehicle: saline); 184 % of control (dose: 200.0 mg/kg/injection, schedule: Q01DX005 (ip), vehicle: saline); 88 % of control and 90 % of control (dose: 400.0 mg/kg/injection, schedule: Q01DX009 (ip), vehicle: saline).

In the case of `Cc1ccc(C(=O)CCN(C)C)c(C)c1`, the T/C (dose: 15.0 mg/kg/injection, schedule: Q01DX005 (ip), vehicle: saline) was 106 % of control; the T/C (dose: 30.0 mg/kg/injection, schedule: Q01DX005 (ip), vehicle: saline) is 100 % of control; the T/C (dose: 60.0 mg/kg/injection, schedule: Q01DX005 (ip), vehicle: saline) was 89 % of control and 97 % of control.

As for `Cc1ccc(Oc2ccc(C(=O)C(CN(C)C)CN(C)C)cc2)cc1`, the T/C is 107 % of control (dose: 1.88 mg/kg/injection, schedule: Q01DX005 (ip), vehicle: saline); 110 % of control (dose: 3.75 mg/kg/injection, schedule: Q01DX005 (ip), vehicle: saline); 112 % of control and 121 % of control (dose: 7.5 mg/kg/injection, schedule: Q01DX005 (ip), vehicle: saline).

Take `N#CCCn1ccc2ccccc21`: the T/C (dose: 100.0 mg/kg/injection, schedule: Q04DX003 (ip), vehicle: other) is 113 % of control; the T/C (dose: 200.0 mg/kg/injection, schedule: Q04DX003 (ip), vehicle: other) is 100 % of control; the T/C (dose: 400.0 mg/kg/injection, schedule: Q04DX003 (ip), vehicle: other) was 90 % of control.

As to `COC1N(Cc2ccccc2)C=C2C(=O)NC(=O)C3NC(c4ccccc4)C1(C)C23C` (centres undefined), the T/C reads like this: under setting [1], 90 % of control; under setting [2], 91 % of control; under setting [3], 88 % of control and 92 % of control.

As for `CN(C)/N=N/c1nc[nH]c1C(N)=O`, the T/C under setting [4] is 95 % of control; the T/C under setting [5] is 105 % of control; the T/C under setting [6] was 123 % of control; the T/C under setting [1] is 105 % of control; the T/C under setting [7] was 106 % of control; the T/C under setting [8] is 120 % of control. In addition, the T/C was 115 % of control under setting [2]; 119 % of control under setting [9]; 120 % of control (dose: 100.0 mg/kg/injection, schedule: Q01DX009 (ip), vehicle: saline with Tween-80); 166 % of control (dose: 150.0 mg/kg/injection, schedule: Q01DX005 (ip), vehicle: distilled water + Tween-80); 122 % of control under setting [3]; 103 % of control (dose: 200.0 mg/kg/injection, schedule: Q01DX009 (ip), vehicle: saline with Tween-80). The T/C by setting is: (dose: 300.0 mg/kg/injection, schedule: Q01DX005 (ip), vehicle: distilled water + Tween-80) 156 % of control; (dose: 400.0 mg/kg/injection, schedule: Q01DX005 (ip), vehicle: saline with Tween-80) 121 % of control; (dose: 400.0 mg/kg/injection, schedule: Q01DX009 (ip), vehicle: saline with Tween-80) 86 % of control.

Consider `NNc1nc2ccccc2s1`, for which the T/C (dose: 12.5 mg/kg/injection, schedule: Q01DX009 (ip), vehicle: saline with Tween-80) is 105 % of control; the T/C under setting [6] is 107 % of control; the T/C under setting [8] was 98 % of control.

As for `CCCCCCCCCCN(CCCCCCCCCC)CC(O)c1ccc2nc3c(cc2c1)CCCC3` (centres undefined), the T/C by setting is: under setting [10], 101 % of control; under setting [11], 101 % of control; under setting [7], 102 % of control and 94 % of control.

For `Cc1ccc(S(=O)(=O)CC2CCc3ccccc3C2=O)cc1` (centres undefined), the T/C (dose: 100.0 mg/kg/injection, schedule: Q04DX002 (ip), vehicle: saline) is 107 % of control; the T/C (dose: 200.0 mg/kg/injection, schedule: Q04DX002 (ip), vehicle: saline) was 101 % of control; the T/C (dose: 400.0 mg/kg/injection, schedule: Q04DX002 (ip), vehicle: saline) was 104 % of control.

Regarding `O=C(O)c1ccc(-c2nn[nH]n2)cc1`, the T/C reads like this: (dose: 6.25 mg/kg/injection, schedule: Q01DX009 (ip), vehicle: Klucel (hydroxypropylcellulose) (HPC)) 107 % of control; (dose: 12.5 mg/kg/injection, schedule: Q01DX009 (ip), vehicle: Klucel (hydroxypropylcellulose) (HPC)) 103 % of control; (dose: 25.0 mg/kg/injection, schedule: Q01DX009 (ip), vehicle: Klucel (hydroxypropylcellulose) (HPC)) 110 % of control; (dose: 100.0 mg/kg/injection, schedule: Q01DX009 (ip), vehicle: Klucel (hydroxypropylcellulose) (HPC)) 92 % of control; (dose: 200.0 mg/kg/injection, schedule: Q01DX009 (ip), vehicle: Klucel (hydroxypropylcellulose) (HPC)) 89 % of control.

In the case of `c1cc[n+](Cc2c3ccccc3cc3c2ccc2ccccc23)cc1`, the T/C runs as follows: (dose: 6.25 mg/kg/injection, schedule: Q01DX005 (ip), vehicle: Klucel (hydroxypropylcellulose) (HPC)) 112 % of control; under setting [4], 112 % of control; under setting [5], 110 % of control.

Regarding `C1CCC2(CC1)CSC2.[Br][Hg][Br]`, the T/C by setting is: (dose: 6.25 mg/kg/injection, schedule: Q01DX001 (ip), vehicle: saline with Tween-80) 89 % of control; (dose: 12.5 mg/kg/injection, schedule: Q01DX001 (ip), vehicle: saline with Tween-80) 87 % of control.

`CC(=O)OCn1cc2c3c(cccc31)C1CC(C)CN(C)C1C2` (centres undefined): the T/C reads like this: under setting [10], 98 % of control; under setting [11], 106 % of control; under setting [7], 100 % of control.

`CNC(=O)OCc1c(C)sc(-c2ccccc2)c1COC(=O)NC`: the T/C (dose: 12.5 mg/kg/injection, schedule: Q01DX005 (ip), vehicle: distilled water + Tween-80) was 93 % of control; the T/C (dose: 25.0 mg/kg/injection, schedule: Q01DX005 (ip), vehicle: distilled water + Tween-80) is 95 % of control; the T/C (dose: 50.0 mg/kg/injection, schedule: Q01DX005 (ip), vehicle: distilled water + Tween-80) is 98 % of control; the T/C (dose: 100.0 mg/kg/injection, schedule: Q01DX005 (ip), vehicle: distilled water + Tween-80) is 86 % of control.

`CC(=O)OCC1OC(CC(=O)c2ccccc2)C=CC1OC(C)=O` (centres undefined): the T/C under setting [11] is 99 % of control; the T/C under setting [7] is 102 % of control and 101 % of control; the T/C under setting [9] was 100 % of control and 106 % of control; the T/C under setting [12] is 97 % of control and 106 % of control.

Take `COc1cc(Br)c(/C=C/[N+](=O)[O-])cc1OC`: where the note is “dose: 100.0 mg/kg/injection, schedule: Q04DX003 (ip), vehicle: saline with Tween-80”, the T/C is 116 % of control.

As for `O=C1c2cccc3cccc(c23)C(=O)N1CCCCCCCCN1C(=O)c2cccc3cccc(c23)C1=O`, the T/C is 96 % of control under setting [7], 95 % of control under setting [9] and 87 % of control under setting [12].

With `CCOC(=O)Nc1cc(NC/C(CN(C)c2ccc(OC)cc2)=N/O)c([N+](=O)[O-])c(N)n1`, the T/C was 86 % of control under setting [7] and 86 % of control under setting [9].

Consider `Nc1nc(F)nc2c1ncn2C1OC(CO)C(O)C1O` (centres undefined), for which the T/C is 253 % of control (dose: 53.0 mg/kg/injection, schedule: Q03HX024 (ip), vehicle: saline with Tween-80); 283 % of control (dose: 80.0 mg/kg/injection, schedule: Q03HX024 (ip), vehicle: saline with Tween-80); 123 % of control (dose: 120.0 mg/kg/injection, schedule: Q03HX024 (ip), vehicle: saline with Tween-80).

Consider `Cc1ccccc1NC(=O)C(=O)C(C#N)c1c(Cl)cccc1Cl` (centres undefined), for which the T/C (dose: 60.0 mg/kg/injection, schedule: Q01DX005 (ip), vehicle: saline with Tween-80) is 114 % of control; the T/C (dose: 120.0 mg/kg/injection, schedule: Q01DX005 (ip), vehicle: saline with Tween-80) is 100 % of control; the T/C (dose: 240.0 mg/kg/injection, schedule: Q01DX005 (ip), vehicle: saline with Tween-80) is 99 % of control.
